≈ marks a conversion by molar mass, not a printed value. Where two headings read alike, the source gives them in different places.
How the values were obtained:
[1] = tested on: E. coli strain MC1061; assay: Duplicate screen of 1000 Maybridge compounds for growth inhibition; type: cell-based, Escherichia coli; details: 10 μL of 1 mM compound in 200 μL/well, 36 hours at 37° C., OD 600 nm
Description: In addition to proof of principle work using well-characterized antibiotics a preliminary screen against a 1000 compound, non-proprietary commercial library from Maybridge (Cornwall, England) was also done. First the identification of compounds with activity against E. coli by screening for inhibition of growth was done. […] To each test well 10 μL of screening compound (1 mM in DMSO) was added and the plate incubated for 36 hours at 37° C. with shaking (150 rpm) before reading the optical density (600 nm). […] The result of this duplicate screen was the identification of 15 compounds with statistically significant antibacterial activity.

[2] = tested on: E. coli strain MC1061; assay: Retest minimum inhibitory concentration on LB-ST agar; details: Escherichia coli, MC1061, read-out: Retest Minimum Inhibitory Concentration
[3] = tested on: E. coli MC1061; assay: Minimum inhibitory concentration determination in LB broth; type: cell-based, Escherichia coli
[4] = tested on: E. coli CW2553 containing pAK01 and pBAD18-folA (strain EB492); details: increasing DHFR expression from pBAD18-folA
[5] = biological target: T1, E. coli DHFR (Escherichia coli, UniProt P0ABQ4); assay: DHF reductase activity assay of recombinant E. coli DHFR (decrease of NADPH at 340 nm); primary screen and IC50 determination; type: biochemical; details: true competitive inhibitor should equal 2.8
T1 construct: The gene was cloned lacking a stop codon into NdeI and XhoI digested pET26b to form pET26b-folA; made in house

[6] = biological target: T1, E. coli DHFR; assay: Determination of kinetic inhibition constants; type: biochemical; details: NADPH 80 μM, dihydrofolate 10 to 300 μM, competitive inhibition
[7] = tested on: E. coli MC1061 clones harboring pGEM7-acrB; type: cell-based, Escherichia coli; details: from MIC in LB-Str-Amp, relative to E. coli MC1061 containing pGEM7
[8] = tested on: MC1061 transformed with the genomic library (the screening pool); type: cell-based, Escherichia coli; details: LB agar-ST; concentration lethal to MC1061
[9] = tested on: E. coli MC1061/pGEM7; assay: microbe, parasite or virus in culture; type: cell-based, Escherichia coli; details: for MIC: Escherichia coli, MC1061/PGEM7, read-out: MIC, minimum growth inhibitory concentration
[10] = tested on: S. cerevisiae DL1 (His, Leu, Ura)/pGAL; assay: MIC of compounds versus yeast; type: cell-based; details: Saccharomyces cerevisiae; agar plates, 72 hours, read visually
[11] = tested on: E. coli MC1061 harboring a multicopy genomic library cloned into pGEM7; assay: Multicopy suppression selection with the selection pool, Example 5; type: cell-based, Escherichia coli; details: LB-Str-Amp agar, 10^5 cells
[12] = Escherichia coli, MC1061, 16 hr at 37° C., OD600 less than 0.1, read-out: MIC
[13] = 16 hr at 37° C., OD600 less than 0.1

Row | SMILES | Growth in Primary Screens, first value of the duplicate [1] | Growth in Primary Screens, second value of the duplicate [1] | MIC [2] | MIC [3, 12] | other results
1 | Nc1nc(-c2ccc(-n3cccc3)cc2)cc(C(F)(F)F)n1 [BTB14887] | 37% | 30% | 125 µg/mL (≈ 411 µM) |  | 
2 | Cc1ccc(Sc2cccc3nc(N)nc(N)c23)cc1 [Compound 1] |  |  |  | 8 µg/mL (≈ 28.3 µM) | 
3 | Nc1nc(N)c2c(Sc3ccc(Cl)cc3)cccc2n1 [Compound 2] |  |  |  | 4 µg/mL (≈ 13.2 µM) | MIC [3, 13]: 4.0 µg/mL (≈ 13.2 µM)
4 | Nc1nc(N)c2c(Oc3ccc(F)cc3)cccc2n1 [Compound 3] |  |  |  | 16 µg/mL (≈ 59.2 µM) | 
5 | Cc1ccc(Oc2cccc3nc(N)nc(N)c23)cc1 [Compound 4] |  |  |  | 4 µg/mL (≈ 15 µM) | MIC [3, 13]: 4.0 µg/mL (≈ 15 µM); dependence of the MIC on arabinose (inducer) concentration [4]: demonstrated an inducer dependence
6 | CC1CCc2c(N)nc(N)nc2C1 (stereo not drawn) [Compound 6] |  |  |  | 64 µg/mL (≈ 359 µM) | IR, IC50 ratio (IC50 in the presence of 100 μM DHF) / (IC50 in the presence of 30 μM DHF) [5]: 2.3; Ki [6]: 1.1 µM; fold suppression by pGEM7-acrB [7]: 4 fold
7 | N[C@@H]1CON=C1O [Cycloserine, D-cycloserine] |  |  |  |  | growth inhibitory concentration to which clones isolated from the screening pool were resistant [8]: 160 µg/mL; MIC [9]: 80 µg/mL (≈ 784 µM)
8 | OC(Cn1cncn1)(Cn1cncn1)c1ccc(F)cc1F [Fluconazole] |  |  |  |  | MIC [10]: 32 µg/mL
9 | C[C@@H]1O[C@@H]1P(=O)(O)O [Fosfomycin] |  |  |  |  | growth inhibitory concentration to which clones isolated from the screening pool were resistant [8]: 320 µg/mL; MIC [9]: 80 µg/mL (≈ 579 µM)
10 | O=C(Oc1c(Cl)cc(Cl)c2cccnc12)c1cccs1 [RH00852] | 2.7% | 2.8% | 16 µg/mL (≈ 49.4 µM) |  | 
11 | CSC(=N)NC(=S)Nc1cccc(Cl)c1 [RJF01047] | 6.0% | 12% | 125 µg/mL (≈ 481 µM) |  | 
12 | N#CC(C#N)=NNc1cc(C(F)(F)F)cc(C(F)(F)F)c1 [SEW04978] | 0.2% | 0.02% | 32 µg/mL (≈ 105 µM) |  | growth inhibitory concentration to which clones isolated from the screening pool were resistant [8]: 64 µg/mL
13 | Clc1ccc(Cc2n[nH]cc2Sc2ccc(Cl)cc2)cc1 [SPB04137] | 2.3% | 2.1% | 500 µg/mL (≈ 1490 µM) |  | 
14 | COc1cc(Cc2cnc(N)nc2N)cc(OC)c1OC [Trimethoprim] |  |  |  | 0.03 µg/mL (≈ 0.103 µM) | MIC [9]: 0.078 µg/mL (≈ 0.269 µM); MIC, minimum growth inhibitory concentration ([9]; LB agar containing ampicillin (50 μg/mL) and streptomycin (50 μg/mL)): 0.078 µg/mL (≈ 0.269 µM); concentration at which suppressor clones were evident [11]: 0.64 µg/mL

Reference: patent US20050267136A1, “Method of inhibiting dihydrofolate reductase; screening assay for the identification of novel therapeutics and their cellular targets” (McMaster University, priority 2003, published 2005)
